The values that follow come from publication PMC11483914, “Appendage- and Scaffold-Diverse Electrophilic and Photoreactive Probes for Integrated Phenotypic Screening–Target Identification Campaigns via a Minimalist Bifunctional Isocyanide” (ACS Omega, 2024).

The target of test [1] is T1, protein disulfide isomerase A1 (PDIA1) (Homo sapiens, UniProt P07237).
T1 construct: gene P4HB; full-length PDIA1 overexpressed in HEK293T (anti-myc detected) for labelling, also endogenous
Briefly: insulin reductase (insulin aggregation) assay. In kind it is biochemical. To be noted: covalent; a-site C53.

For test [2], the target named is T1, protein disulfide isomerase A1 (PDIA1). Briefly: in-gel fluorescence after CuAAC, SKOV-3 wildtype versus PDIA1 knockout and HEK293T overexpression. In kind it is cell-based. To be noted: 500 nM, 1 h.

T1 sequence (P07237 18-508): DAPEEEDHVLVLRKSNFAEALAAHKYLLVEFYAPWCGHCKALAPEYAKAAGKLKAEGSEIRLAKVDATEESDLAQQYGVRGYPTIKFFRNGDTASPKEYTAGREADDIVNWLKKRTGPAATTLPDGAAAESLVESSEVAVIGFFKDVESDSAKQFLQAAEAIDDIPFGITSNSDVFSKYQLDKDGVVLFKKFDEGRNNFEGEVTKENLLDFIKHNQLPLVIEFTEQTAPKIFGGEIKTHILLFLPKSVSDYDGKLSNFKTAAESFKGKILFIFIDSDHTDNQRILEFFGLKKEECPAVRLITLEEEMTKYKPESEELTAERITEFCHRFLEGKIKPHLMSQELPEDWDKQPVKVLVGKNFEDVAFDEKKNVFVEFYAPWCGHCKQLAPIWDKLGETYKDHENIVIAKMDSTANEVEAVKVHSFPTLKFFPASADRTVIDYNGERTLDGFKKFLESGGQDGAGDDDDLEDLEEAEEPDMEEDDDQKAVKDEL

With `C#CCN(CCNC(=O)C1(N(CC=C)C(=O)c2ccc(Cl)cc2)CCN(Cc2ccccc2)CC1)C(=O)CCl` [4a, FFSMP 4a], the “inhibition of PDIA1 activity” value in test [1] is listed as “FFSMP 4a was shown to inhibit PDIA1 at low μM concentrations”. The covalent labelling entry in test [2] is on record as “confirming PDIA1 as a predominant protein target of biologically active FFSMP 4a”.
